Consider 15 molecules from patent US10246444B2, “1,2-dithiolane and dithiol compounds useful in treating mutant EGFR-mediated diseases and conditions” (Sabila Biosciences LLC, priority 2017, dated 2019).

Where two headings read alike, the source gives them in different places. A value given as a limit tells only on which side of the number the result lay.

One assay addresses HER2 (Homo sapiens (Human), UniProt P04626). Nature of the assay: KinaseSeeker rabbit reticulocyte lysate competition binding assay (IC50).
Assay [1] concerns the target T1, EGFR (L858R) (Homo sapiens (Human), UniProt P00533, L858R). The description is as above.
The target of another assay is EGFR WT (Homo sapiens (Human), UniProt P00533). The assay is described as above.
For the next assay, the target named is EGFR WT (wild type EGFR) (Homo sapiens (Human), UniProt P00533). Nature of the assay: KINOMEscan competition binding assay (Kd). The following applies: read-out: Kd Activity Level (EGFR WT).
Assay [2] deals with T1, EGFR (L858R). Nature of the assay: KINOMEscan competition binding assay (Kd). To be noted: read-out: Kd Activity Level (EGFR L858R).
The target in another assay is EGFR E746-A750del (Homo sapiens (Human), UniProt P00533, DEL746-750). Nature of the assay: KINOMEscan competition binding assay (Kd). To be noted: KINOMEscan binding constant; read-out: Kd Activity Level (EGFR E746-A750del).
The next assay deals with EGFR S752-I759del (Homo sapiens (Human), UniProt P00533, DEL752-759). Nature of the assay: KINOMEscan competition binding assay (Kd). The following applies: KINOMEscan binding constant; read-out: Kd Activity Level (EGFR S752-I759del).
In a further assay the target is EGFR L858R/T790M (Homo sapiens (Human), UniProt P00533, L858R/T790M). The assay is described as follows: KINOMEscan competition binding assay (Kd). The following applies: KINOMEscan binding constant; read-out: Kd Activity Level (EGFR L858R/T790M).
For assay [3], the target named is kinase (Homo sapiens, UniProt Q15303). The assay is described as follows: Radioisotope filter binding assay (33P-ATP kinase activity, IC50). Type of assay: biochemical. The following applies: HER 4, read-out: IC50 Activity level HER 4. As to the method: (§1) Radioisotope Filter Binding Assay: In this assay format, it directly detects the true product without the use of modified substrates or coupling enzymes (Uitdehaag, J. C. et al. Br. J. Pharmacol. 2012, 166, 858-876; Hastie, C. J. et al. Nat. Protoc. 2006, 1, 968-971) according to equation 1.
(§2) The protocol calls for test compound of the invention to be incubated with kinase, substrate, cofactors, and radio-isotope-labeled ATP (^33P-gamma-ATP). The reaction mixtures are then spotted onto filter papers which bind the radioisotope labeled catalytic product. Unreacted phosphate is removed via washing. The reagents used include base reaction buffer; 20 mM Hepes (pH 7.5), 10 mM MgCl2, 1 mM EGTA, 0.02% Brij35, 0.02 mg/ml BSA, 0.1 mM Na3VO4, 2 mM DTT, 1% DMSO. The reaction procedure include the following steps: (1) prepare indicated substrate in freshly prepared base reaction buffer, (2) deliver any required cofactors to the substrate solution above, (3) deliver indicated kinase into the substrate solution and gently mix, (4) deliver compounds in DMSO into the kinase reaction mixture by Acoustic technology (Echo550; nanoliter range), incubate for 20 minutes at room temperature, (5) deliver ^33P-ATP (specific activity 10 μCi/μL) into the reaction mixture to initiate the reaction, (6) incubate kinase reaction for 2 hours at room temperature, (7) reactions are spotted onto P81 ion exchange paper, (8) detect kinase activity by filter-binding method.

Assay [4] concerns the target kinase (Homo sapiens, UniProt P00533, DEL746-750). The assay is described as above. It is filed as biochemical. To be noted: EGFR E746-A750del, read-out: IC50 Activity level EGFR E746-A750del. On the procedure:
as §1, §2

The target in assay [5] is kinase (Homo sapiens, UniProt P00533, L858R). The assay is described as above. It is filed as biochemical. The following applies: EGFR L858R, read-out: IC50 Activity level EGFR L858R. As to the method: as §1, §2
In assay [6] the target is kinase (Homo sapiens, UniProt P00533). The description is as above. It is filed as biochemical. The following applies: EGFR WT, read-out: IC50 Activity level EGFR WT. As to the method:
as §1, §2

Chain of EGFR L858R/T790M (P00533 25-1210 T790M/L858R): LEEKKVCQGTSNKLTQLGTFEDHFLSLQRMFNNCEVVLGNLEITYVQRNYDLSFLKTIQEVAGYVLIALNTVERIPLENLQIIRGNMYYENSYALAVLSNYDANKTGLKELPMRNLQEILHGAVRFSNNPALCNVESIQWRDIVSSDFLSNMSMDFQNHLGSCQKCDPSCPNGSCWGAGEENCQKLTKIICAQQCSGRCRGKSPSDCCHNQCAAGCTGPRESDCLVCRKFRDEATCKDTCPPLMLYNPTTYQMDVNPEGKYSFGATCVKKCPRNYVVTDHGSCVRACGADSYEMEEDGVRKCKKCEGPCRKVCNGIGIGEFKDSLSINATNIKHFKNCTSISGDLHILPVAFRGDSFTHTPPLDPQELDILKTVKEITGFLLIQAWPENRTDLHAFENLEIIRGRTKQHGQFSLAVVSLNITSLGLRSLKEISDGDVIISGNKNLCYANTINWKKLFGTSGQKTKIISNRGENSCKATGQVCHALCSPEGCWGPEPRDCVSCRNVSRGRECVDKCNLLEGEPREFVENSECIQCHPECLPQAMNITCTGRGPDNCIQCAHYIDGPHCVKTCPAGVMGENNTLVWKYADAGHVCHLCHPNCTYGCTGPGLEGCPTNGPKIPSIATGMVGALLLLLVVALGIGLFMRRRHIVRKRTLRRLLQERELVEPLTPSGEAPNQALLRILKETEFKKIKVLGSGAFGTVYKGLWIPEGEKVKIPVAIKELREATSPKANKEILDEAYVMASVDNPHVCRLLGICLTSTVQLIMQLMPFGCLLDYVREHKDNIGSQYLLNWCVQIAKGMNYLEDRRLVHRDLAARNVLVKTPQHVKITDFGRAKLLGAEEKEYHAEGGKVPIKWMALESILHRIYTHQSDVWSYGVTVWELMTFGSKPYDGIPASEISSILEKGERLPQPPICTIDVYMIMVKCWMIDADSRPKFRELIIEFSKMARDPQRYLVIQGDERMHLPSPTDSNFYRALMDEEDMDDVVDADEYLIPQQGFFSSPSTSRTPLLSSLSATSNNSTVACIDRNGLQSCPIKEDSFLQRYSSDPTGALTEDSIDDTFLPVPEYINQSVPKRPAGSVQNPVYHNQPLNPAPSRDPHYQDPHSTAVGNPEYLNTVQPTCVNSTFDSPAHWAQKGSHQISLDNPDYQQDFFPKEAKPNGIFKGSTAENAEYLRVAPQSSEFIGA
Chain of HER2 (P04626 23-1255): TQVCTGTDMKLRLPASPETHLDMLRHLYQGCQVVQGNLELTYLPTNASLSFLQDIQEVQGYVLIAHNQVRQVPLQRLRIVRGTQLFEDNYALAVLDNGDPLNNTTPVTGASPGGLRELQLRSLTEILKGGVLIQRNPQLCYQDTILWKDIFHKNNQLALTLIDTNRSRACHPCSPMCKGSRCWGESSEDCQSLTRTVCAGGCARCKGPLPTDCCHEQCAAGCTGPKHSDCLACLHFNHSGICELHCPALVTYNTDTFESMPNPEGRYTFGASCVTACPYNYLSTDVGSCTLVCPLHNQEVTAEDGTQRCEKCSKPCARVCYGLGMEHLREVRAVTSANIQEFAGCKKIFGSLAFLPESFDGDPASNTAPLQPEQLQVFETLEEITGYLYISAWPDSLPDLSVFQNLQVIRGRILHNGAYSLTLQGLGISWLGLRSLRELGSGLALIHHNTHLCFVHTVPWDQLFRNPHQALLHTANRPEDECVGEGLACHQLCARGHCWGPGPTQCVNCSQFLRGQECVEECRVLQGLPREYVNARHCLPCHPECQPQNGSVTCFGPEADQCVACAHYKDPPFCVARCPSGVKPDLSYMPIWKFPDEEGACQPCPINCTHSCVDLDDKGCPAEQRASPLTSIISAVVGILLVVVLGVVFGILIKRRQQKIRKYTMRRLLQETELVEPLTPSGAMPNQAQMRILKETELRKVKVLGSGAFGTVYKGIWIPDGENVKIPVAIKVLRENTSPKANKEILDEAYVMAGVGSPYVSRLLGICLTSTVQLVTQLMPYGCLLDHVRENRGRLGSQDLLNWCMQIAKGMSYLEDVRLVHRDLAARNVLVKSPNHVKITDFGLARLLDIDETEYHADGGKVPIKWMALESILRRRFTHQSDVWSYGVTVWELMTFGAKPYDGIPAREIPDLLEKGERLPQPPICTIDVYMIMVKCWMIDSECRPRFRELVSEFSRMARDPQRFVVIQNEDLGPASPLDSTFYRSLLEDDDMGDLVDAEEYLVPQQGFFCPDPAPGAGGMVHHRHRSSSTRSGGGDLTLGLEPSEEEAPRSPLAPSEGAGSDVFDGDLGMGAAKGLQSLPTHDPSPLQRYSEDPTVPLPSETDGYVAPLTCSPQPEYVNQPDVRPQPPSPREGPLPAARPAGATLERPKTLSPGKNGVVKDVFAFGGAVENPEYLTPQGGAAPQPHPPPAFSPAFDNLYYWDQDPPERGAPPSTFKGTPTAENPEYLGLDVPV
Chain of EGFR WT (P00533 25-1210): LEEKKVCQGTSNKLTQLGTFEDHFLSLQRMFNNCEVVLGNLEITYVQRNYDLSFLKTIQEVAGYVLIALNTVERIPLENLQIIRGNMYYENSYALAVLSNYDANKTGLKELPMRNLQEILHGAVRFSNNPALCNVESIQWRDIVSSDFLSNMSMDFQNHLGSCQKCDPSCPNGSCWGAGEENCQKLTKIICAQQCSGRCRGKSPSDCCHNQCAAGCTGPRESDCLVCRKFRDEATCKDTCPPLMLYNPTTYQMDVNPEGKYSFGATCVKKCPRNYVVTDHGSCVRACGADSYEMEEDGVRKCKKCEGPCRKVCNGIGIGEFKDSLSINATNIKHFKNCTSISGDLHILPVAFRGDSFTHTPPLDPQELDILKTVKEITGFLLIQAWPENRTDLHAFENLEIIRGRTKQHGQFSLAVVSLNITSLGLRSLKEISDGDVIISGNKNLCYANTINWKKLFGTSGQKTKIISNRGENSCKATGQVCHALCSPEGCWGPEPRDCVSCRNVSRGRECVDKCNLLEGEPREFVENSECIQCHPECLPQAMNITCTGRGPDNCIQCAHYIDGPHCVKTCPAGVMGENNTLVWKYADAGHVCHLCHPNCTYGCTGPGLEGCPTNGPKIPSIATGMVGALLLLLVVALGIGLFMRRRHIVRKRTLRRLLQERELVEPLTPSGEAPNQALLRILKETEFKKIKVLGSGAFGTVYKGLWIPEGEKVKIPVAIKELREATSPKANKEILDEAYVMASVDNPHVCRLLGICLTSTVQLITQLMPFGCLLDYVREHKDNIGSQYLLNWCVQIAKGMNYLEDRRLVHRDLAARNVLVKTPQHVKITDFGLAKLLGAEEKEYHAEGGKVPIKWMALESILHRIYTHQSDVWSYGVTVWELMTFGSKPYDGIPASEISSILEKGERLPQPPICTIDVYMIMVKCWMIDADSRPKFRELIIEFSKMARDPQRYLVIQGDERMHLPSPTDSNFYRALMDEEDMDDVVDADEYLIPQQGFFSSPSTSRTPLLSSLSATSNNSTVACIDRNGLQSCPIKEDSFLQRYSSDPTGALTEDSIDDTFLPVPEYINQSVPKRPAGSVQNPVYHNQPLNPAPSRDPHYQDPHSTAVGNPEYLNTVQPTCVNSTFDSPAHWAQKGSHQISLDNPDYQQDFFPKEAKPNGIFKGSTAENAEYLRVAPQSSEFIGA
Chain of EGFR WT (wild type EGFR) (P00533 25-1210): as above
Chain of EGFR S752-I759del (P00533 other isoform, or with tags, fused parts or gaps del 1-668/del 752-759/del 1012-1210 limits assumed): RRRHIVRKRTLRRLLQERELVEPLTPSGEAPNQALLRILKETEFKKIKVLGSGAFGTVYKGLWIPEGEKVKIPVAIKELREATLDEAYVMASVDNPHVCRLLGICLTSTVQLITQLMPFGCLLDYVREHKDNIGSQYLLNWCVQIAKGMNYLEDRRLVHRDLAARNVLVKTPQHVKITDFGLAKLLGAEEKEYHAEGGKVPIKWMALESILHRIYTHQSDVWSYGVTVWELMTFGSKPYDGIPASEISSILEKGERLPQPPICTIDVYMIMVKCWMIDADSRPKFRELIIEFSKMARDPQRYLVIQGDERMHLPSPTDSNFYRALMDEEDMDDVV

Regarding `CCOc1cc2ncc(C#N)c(Nc3ccc(F)c(Cl)c3)c2cc1NC(=O)C1CSSC1` [Example 31, N-(4-((3-Chloro-4-fluorophenyl)amino)-3-cyano-7-ethoxyquinolin-6-yl)-1,2-dithiolane-4-carboxamide], the IC50 at HER2, at EGFR (L858R) [1] and at EGFR WT was 100 to 999 nM in each case.

Turning to `CCOc1cc2ncc(C#N)c(Nc3ccc(F)c(Cl)c3)c2cc1NC(=O)C1CCSS1` (centres unmarked) [Example 33, N-(4-((3-Chloro-4-fluorophenyl)amino)-3-cyano-7-ethoxyquinolin-6-yl)-1,2-dithiolane-3-carboxamide], the Kd at EGFR WT (wild type EGFR) and at EGFR (L858R) [2] was 1 to 99 nM throughout. Also, the IC50 on EGFR (L858R) [1] is 1 to 99 nM.

`CCOc1cc2ncc(C#N)c(Nc3ccc(OCc4cccc(F)c4)c(Cl)c3)c2cc1NC(=O)C(CSC(C)=O)CSC(C)=O` [Example 34]: the values for the half-maximal inhibitory concentration (IC50) on HER2, at EGFR (L858R) [1] and on EGFR WT were 100 to 999 nM, 1 to 99 nM and 100 to 999 nM, respectively. Further, the Kd is 100 to 999 nM at EGFR E746-A750del; 1 to 99 nM on EGFR WT (wild type EGFR); 100 to 999 nM on EGFR S752-I759del; over 10000 nM at EGFR L858R/T790M; 1 to 99 nM at EGFR (L858R) [2].

Turning to `CCOc1cc2ncc(C#N)c(Nc3ccc(OCc4cccc(F)c4)c(Cl)c3)c2cc1NC(=O)C1CSSC1` [Example 36, N-(4-((3-Chloro-4-((3-fluorobenzyl)oxy)phenyl)amino)-3-cyano-7-ethoxyquinolin-6-yl)-1,2-dithiolane-4-carboxamide], the values for the IC50 on HER2, at EGFR (L858R) [1] and at EGFR WT were 100 to 999 nM, 1 to 99 nM and 100 to 999 nM, respectively. The Kd is 1 to 99 nM on EGFR E746-A750del; 1 to 99 nM on EGFR WT (wild type EGFR); 1 to 99 nM at EGFR S752-I759del; over 10000 nM at EGFR L858R/T790M; 1 to 99 nM on EGFR (L858R) [2].

`CCOc1cc2ncc(C#N)c(Nc3ccc(F)c(Cl)c3)c2cc1NC(=O)CCCCC1CCSS1` (centres unmarked) [Example 42, N-(4-(3-Chloro-4-fluorophenylamino)-3-cyano-7-ethoxyquinolin-6-yl)-5-(1,2-dithiolan-3-yl)pentanamide]: the IC50 at HER2, on EGFR (L858R) [1] and on EGFR WT was 100 to 999 nM throughout.

Regarding `Cc1ccc(Oc2ccc(Nc3c(C#N)cnc4ccc(NC(=O)CC5CCSS5)cc34)cc2C)cn1` (centres unmarked) [Example 55, N-(3-Cyano-4-((3-methyl-4-((6-methylpyridin-3-yl)oxy)phenyl)amino)quinolin-6-yl)-2-(1,2-dithiolan-3-yl)acetamide], the IC50 at HER2 (read-out: IC50 Activity level HER2, KinaseSeeker, Table 18) is over 10000 nM; at EGFR (L858R) [1] (read-out: IC50 Activity level EGFR L858R, KinaseSeeker, Table 18), over 10000 nM; at EGFR WT (read-out: IC50 Activity level EGFR WT, KinaseSeeker, Table 18), over 10000 nM.

Regarding `N#Cc1cnc2ccc(NC(=O)C3CSSC3)cc2c1Nc1ccc(OCc2cccc(F)c2)c(Cl)c1` [Example 61, N-(4-((3-Chloro-4-((3-fluorobenzyl)oxy)phenyl)amino)-3-cyanoquinolin-6-yl)-1,2-dithiolane-4-carboxamide], the half-maximal inhibitory concentration (IC50) on kinase [3] was 100 to 999 nM.

On to `N#Cc1cnc2ccc(NC(=O)CC3CCSS3)cc2c1Nc1ccc(OCc2cccc(F)c2)c(Cl)c1` (centres unmarked) [Example 62, N-(4-((3-Chloro-4-((3-fluorobenzyl)oxy)phenyl)amino)-3-cyanoquinolin-6-yl)-2-(1,2-dithiolan-3-yl)acetamide], for which the results for the IC50 on EGFR (L858R) [1], at kinase [3] and on EGFR WT were 1 to 99 nM, 1 to 99 nM and 100 to 999 nM, respectively.

Regarding `N#Cc1cnc2cc(OC[C@H](O)CO)c(NC(=O)C[C@H]3CCSS3)cc2c1Nc1ccc(OCc2cccc(F)c2)c(Cl)c1` [Example 81, N-(4-((3-Chloro-4-((3-fluorobenzyl)oxy)phenyl)amino)-3-cyano-7-((R)-2,3-dihydroxypropoxy)quinolin-6-yl)-2-(1,2-dithiolan-3S-yl) acetamide], the IC50 on HER2 was 100 to 999 nM; on EGFR (L858R) [1] it was 1 to 99 nM; on EGFR WT it was 100 to 999 nM. For the same molecule, the Kd at EGFR E746-A750del was 1 to 99 nM; on EGFR WT (wild type EGFR) it was 1 to 99 nM; at EGFR S752-I759del, 1 to 99 nM; on EGFR L858R/T790M, over 10000 nM; at EGFR (L858R) [2], 1 to 99 nM.

For `N#Cc1cnc2cc(OC[C@H](O)CO)c(NC(=O)CC3CCSS3)cc2c1Nc1ccc(OCc2cccc(F)c2)c(Cl)c1` (stereo partly drawn) [Example 82, N-(4-((3-Chloro-4-((3-fluorobenzyl)oxy)phenyl)amino)-3-cyano-7-((R)-2,3-dihydroxypropoxy)quinolin-6-yl)-2-(1,2-dithiolan-3-yl)acetamide], the IC50 at HER2 fell in the range of 100 to 999 nM; on EGFR (L858R) [1] it was 1 to 99 nM; on EGFR WT, 100 to 999 nM. The Kd on EGFR E746-A750del is 1 to 99 nM; at EGFR WT (wild type EGFR) it was 1 to 99 nM; on EGFR S752-I759del, 1 to 99 nM; on EGFR L858R/T790M, over 10000 nM; at EGFR (L858R) [2] it was 1 to 99 nM.

Consider `N#Cc1cnc2cc(OC[C@@H](O)CO)c(NC(=O)C[C@@H]3CCSS3)cc2c1Nc1ccc(OCc2cccc(F)c2)c(Cl)c1` [Example 85, N-(4-((3-Chloro-4-((3-fluorobenzyl)oxy)phenyl)amino)-3-cyano-7-((S)-2,3-dihydroxypropoxy)quinolin-6-yl)-2-(1,2-dithiolan-3R-yl)acetamide], for which the IC50 is 100 to 999 nM at HER2, 1 to 99 nM on EGFR (L858R) [1] and 100 to 999 nM at EGFR WT. Besides, the Kd on EGFR E746-A750del is 1 to 99 nM; on EGFR WT (wild type EGFR), 1 to 99 nM; on EGFR S752-I759del, 1 to 99 nM; at EGFR L858R/T790M it was over 10000 nM; at EGFR (L858R) [2], 1 to 99 nM.

As to `N#Cc1cnc2cc(OC[C@@H](O)CO)c(NC(=O)C[C@H]3CCSS3)cc2c1Nc1ccc(OCc2cccc(F)c2)c(Cl)c1` [Example 86, N-(4-((3-Chloro-4-((3-fluorobenzyl)oxy)phenyl)amino)-3-cyano-7-((S)-2,3-dihydroxypropoxy)quinolin-6-yl)-2-(1,2-dithiolan-3S-yl)acetamide], the IC50 on HER2 lay in the range of 100 to 999 nM; at EGFR (L858R) [1], 1 to 99 nM; at EGFR WT, 100 to 999 nM. The Kd is 1 to 99 nM at EGFR E746-A750del; 1 to 99 nM on EGFR WT (wild type EGFR); 1 to 99 nM at EGFR S752-I759del; over 10000 nM at EGFR L858R/T790M; 1 to 99 nM at EGFR (L858R) [2].

Consider `CC(=O)SCC(CSC(C)=O)C(=O)Nc1cc2c(Nc3ccc(OCc4cccc(F)c4)c(Cl)c3)c(C#N)cnc2cc1OC[C@H](O)CO` [Example 94, (R)—S,S′-(2-((4-((3-Chloro-4-((3-fluorobenzyl)oxy)phenyl)amino)-3-cyano-7-(2,3-dihydroxypropoxy)quinolin-6-yl)carbamoyl)propane-1,3-diyl)diethanethioate], for which the Kd on EGFR WT (wild type EGFR) and at EGFR (L858R) [2] was 1 to 99 nM in each case.

With `N#Cc1cnc2cc(OC[C@H](O)CO)c(NC(=O)C3CSSC3)cc2c1Nc1ccc(OCc2cccc(F)c2)c(Cl)c1` [Example 95, (R)—N-(4-((3-Chloro-4-((3-fluorobenzyl)oxy)phenyl)amino)-3-cyano-7-(2,3-dihydroxypropoxy)quinolin-6-yl)-1,2-dithiolane-4-carboxamide], the IC50 at EGFR (L858R) [1] lay in the range of 1 to 99 nM; on kinase [4], 1000 to 10000 nM; on kinase [5], 100 to 999 nM; at kinase [6], 1 to 99 nM; on EGFR WT it was 100 to 999 nM.

With `COc1cc2ncnc(Nc3ccc(Oc4ccc(C)nc4)c(C)c3)c2cc1NC(=O)C1CSSC1` [Example 104, N-(7-Methoxy-4-((3-methyl-4-((6-methylpyridin-3-yl)oxy)phenyl)amino)quinazolin-6-yl)-1,2-dithiolane-4-carboxamide], the IC50 on HER2, at EGFR (L858R) [1] and on EGFR WT was 100 to 999 nM throughout.

As a reminder, the IC50 is the concentration that inhibits the measured activity by half.
